Legend:
Format in all cases: cell-based
[1] = tested on: S. aureus; assay: Zone of inhibition on agar plates; details: Staphylococcus aureus, 37° C., 24 h, 25 mg hydrogel with 2 mg drug
Protocol: (§1) S. aureus and S. mutans were cultured in nutrient broth and spread onto agar plates. Hydrogels (25 mg SF doxy hydrogel having 5 mm diameter with 2 mg drug) were kept in each plate in the center on the media and for doxycycline, drug was added in the center where the media was punched out. Plates were incubated at 37° C. for 24 h. After the incubation period, radius of the zone of inhibition was measured in each plate.

[2] = tested on: S. mutans; assay: Zone of inhibition on agar plates; details: Streptococcus mutans, 37° C., 24 h, 25 mg hydrogel with 2 mg drug
Protocol: as §1

[3] = MTT assay cell viability
Protocol: All the three cell lines (10,000 cells/200 μl medium) were cultured in their respective media in 96-well plates until they reached 60% confluency. Hydrogels and doxycycline were added in their respective wells. Plates were incubated at 37° C., 5% CO2, for 24 h. Media were removed and 200 μl of MTT solution (0.5 mg/ml prepared in phosphate buffer saline (PBS, Himedia, Catalog #TS1119)) was added to each well. Plate was incubated in dark at 37° C., 5% CO2 for 4h. MTT solution was then removed and 100 μl demthyl sulfoxide (DMSO) was added to each well to dissolve the formazan crystal. Absorbance was calculated at 570 nm in the multiplate reader. Percent of cell viability was calculated using Equation 2.
Where, O.D. is optical density at 570 nm.

C[C@H]1c2cccc(O)c2C(=O)C2=C(O)[C@]3(O)C(=O)C(C(N)=O)=C(O)[C@@H](N(C)C)[C@@H]3[C@@H](O)[C@@H]21 [doxycycline]
zone of inhibition at 2000 µg/disc [1]: 10 mm
zone of inhibition at 2000 µg/disc [2]: 25 mm
viability at 24 h ([3]; human, HDFC cells): 40%
viability at 24 h ([3]; human, MG63 cells, MG63, 24 h): 40%
viability at 24 h ([3]; mouse, MC3T3 cells, MC3T3, 24 h): 40%

Reference: patent publication US20250144170A1, “METHOD FOR SUSTAINED DRUG DELIVERY FOR WOUND HEALING USING SILK HYDROGEL AND PRODUCT THEREOF” (AASYA HEALTH CARE PRIVATE LIMITED, priority 2022, published 2025)
